Assay results published in patent US12516056B2, “Compounds for inhibition of janus kinase 1” (MANKIND PHARMA LTD., priority 2019, dated 2026).

Legend:
[1] = test system: STAT5 phosphorylation by IL-2 in HT-2 cells; assay: STAT5 phosphorylation by IL-2 in HT-2 cells (HTRF); assay type: cell-based; details: HT2, HT-2 cells, IL-2 50 U/ml, pSTAT5 HTRF; read-out: Cell Based Assay (μM) HT-2/IL-2/pSTAT5
In short: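 Starved HT-2 cells (120,000/well) were preincubated 30 min at 37 °C with compound (0.2% DMSO), then stimulated 20 min with human IL-2 (50 U/ml). pSTAT5 in lysates measured by HTRF, with unstimulated-cell background subtracted.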

Recombinant TYK2 = target: T1, Recombinant TYK2 (Homo sapiens, UniProt P29597); assay: JAK biochemical assay (LANCE Ultra TR-FRET), TYK2; details: recombinant TYK2, TR-FRET; read-out: Biochemical Assay (μM) TYK2
T1 construct: purchased Carna Biosciences
In short: (§1)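 TR-FRET read-out of ULight substrate phosphorylation by recombinant kinase gives % inhibition relative to vehicle. The assay buffer is HEPES pH 7.5 with EGTA, MgCl2, DTT and Tween-20.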

Recombinant JAK1 = target: T2, Recombinant JAK1 (Homo sapiens, UniProt P23458); assay: JAK biochemical assay (LANCE Ultra TR-FRET), JAK1; details: recombinant JAK1, TR-FRET; read-out: Biochemical Assay (μM) JAK1
T2 construct: purchased Carna Biosciences
In short: as §1

Recombinant JAK3 = target: T3, Recombinant JAK3 (Homo sapiens, UniProt P52333); assay: JAK biochemical assay (LANCE Ultra TR-FRET), JAK3; details: recombinant JAK3, TR-FRET; read-out: Biochemical Assay (μM) JAK3
T3 construct: purchased Carna Biosciences
T3 sequence (P52333 1-1124): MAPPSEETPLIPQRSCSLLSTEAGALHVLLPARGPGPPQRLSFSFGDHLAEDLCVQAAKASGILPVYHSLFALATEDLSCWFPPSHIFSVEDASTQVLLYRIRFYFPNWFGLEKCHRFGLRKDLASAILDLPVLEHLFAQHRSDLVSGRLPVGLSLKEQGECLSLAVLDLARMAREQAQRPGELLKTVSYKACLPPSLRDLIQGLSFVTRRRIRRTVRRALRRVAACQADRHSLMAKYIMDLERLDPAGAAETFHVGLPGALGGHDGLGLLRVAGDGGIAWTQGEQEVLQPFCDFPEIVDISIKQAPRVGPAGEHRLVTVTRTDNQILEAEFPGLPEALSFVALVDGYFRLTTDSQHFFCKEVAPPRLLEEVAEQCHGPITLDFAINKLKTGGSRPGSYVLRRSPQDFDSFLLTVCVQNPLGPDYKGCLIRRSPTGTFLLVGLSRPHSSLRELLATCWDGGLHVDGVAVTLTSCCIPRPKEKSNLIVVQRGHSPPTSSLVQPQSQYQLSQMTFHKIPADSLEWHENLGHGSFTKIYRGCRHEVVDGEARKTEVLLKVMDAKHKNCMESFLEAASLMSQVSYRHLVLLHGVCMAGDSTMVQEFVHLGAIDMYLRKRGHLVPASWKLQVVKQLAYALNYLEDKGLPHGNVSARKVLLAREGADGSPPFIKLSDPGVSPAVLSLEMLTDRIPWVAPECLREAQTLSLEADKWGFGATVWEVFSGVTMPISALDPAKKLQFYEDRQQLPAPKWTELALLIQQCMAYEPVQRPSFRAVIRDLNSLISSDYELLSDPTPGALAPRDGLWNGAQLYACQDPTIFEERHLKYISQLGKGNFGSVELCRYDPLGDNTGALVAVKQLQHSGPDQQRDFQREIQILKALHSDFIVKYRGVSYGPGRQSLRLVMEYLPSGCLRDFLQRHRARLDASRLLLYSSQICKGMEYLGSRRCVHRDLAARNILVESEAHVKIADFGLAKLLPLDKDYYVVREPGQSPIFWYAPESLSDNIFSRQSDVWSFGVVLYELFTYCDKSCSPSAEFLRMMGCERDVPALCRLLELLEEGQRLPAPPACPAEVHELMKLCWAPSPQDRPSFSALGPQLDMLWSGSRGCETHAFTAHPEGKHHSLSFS
In short: as §1

[2] = test system: STAT3 phosphorylation by IL-6 in TF-1 cells; assay: JAK cellular assay: STAT3 phosphorylation by IL-6 in TF-1 cells (HTRF); assay type: cell-based; details: Homo sapiens, TF-1, TF-1 cells, IL-6 30 ng/ml, pSTAT3 HTRF; read-out: Cell Based Assay (μM) TF-1/IL-6/pSTAT3
In short: (§2)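 TF-1 cells starved overnight in low-serum OptiMEM, then 120,000/well in RPMI, preincubated with compound 30 min at 37 °C (0.2% DMSO final). Stimulation 20 min with IL-6 30 ng/ml (pSTAT3) or GMCSF 5 ng/ml (pSTAT5); lysate phospho-STAT by HTRF, unstimulated background subtracted.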

Recombinant JAK2 = target: T4, Recombinant JAK2 (Homo sapiens, UniProt O60674); assay: JAK biochemical assay (LANCE Ultra TR-FRET), JAK2; details: recombinant JAK2, TR-FRET; read-out: Biochemical Assay (μM) JAK2
T4 construct: purchased Carna Biosciences
In short: as §1

[3] = test system: IFN-γ production in NK 92 cells by IL-12; assay: IFN-γ production in NK 92 cells by IL-12 (ELISA); details: NK92, IFN-γ secretion, read-out: Cell Based Assay (μM) NK-92/IL-2/IFN-γ
[4] = test system: STAT5 phosphorylation by GMCSF in TF-1 cells; assay: JAK cellular assay: STAT5 phosphorylation by GMCSF in TF-1 cells (HTRF); assay type: cell-based; details: Homo sapiens; TF-1 cells, GMCSF 5 ng/ml, pSTAT5 HTRF; read-out: Cell Based Assay (μM) TF-1/GMCSF/pSTAT5
In short: as §2

T4 sequence (O60674 whole entry): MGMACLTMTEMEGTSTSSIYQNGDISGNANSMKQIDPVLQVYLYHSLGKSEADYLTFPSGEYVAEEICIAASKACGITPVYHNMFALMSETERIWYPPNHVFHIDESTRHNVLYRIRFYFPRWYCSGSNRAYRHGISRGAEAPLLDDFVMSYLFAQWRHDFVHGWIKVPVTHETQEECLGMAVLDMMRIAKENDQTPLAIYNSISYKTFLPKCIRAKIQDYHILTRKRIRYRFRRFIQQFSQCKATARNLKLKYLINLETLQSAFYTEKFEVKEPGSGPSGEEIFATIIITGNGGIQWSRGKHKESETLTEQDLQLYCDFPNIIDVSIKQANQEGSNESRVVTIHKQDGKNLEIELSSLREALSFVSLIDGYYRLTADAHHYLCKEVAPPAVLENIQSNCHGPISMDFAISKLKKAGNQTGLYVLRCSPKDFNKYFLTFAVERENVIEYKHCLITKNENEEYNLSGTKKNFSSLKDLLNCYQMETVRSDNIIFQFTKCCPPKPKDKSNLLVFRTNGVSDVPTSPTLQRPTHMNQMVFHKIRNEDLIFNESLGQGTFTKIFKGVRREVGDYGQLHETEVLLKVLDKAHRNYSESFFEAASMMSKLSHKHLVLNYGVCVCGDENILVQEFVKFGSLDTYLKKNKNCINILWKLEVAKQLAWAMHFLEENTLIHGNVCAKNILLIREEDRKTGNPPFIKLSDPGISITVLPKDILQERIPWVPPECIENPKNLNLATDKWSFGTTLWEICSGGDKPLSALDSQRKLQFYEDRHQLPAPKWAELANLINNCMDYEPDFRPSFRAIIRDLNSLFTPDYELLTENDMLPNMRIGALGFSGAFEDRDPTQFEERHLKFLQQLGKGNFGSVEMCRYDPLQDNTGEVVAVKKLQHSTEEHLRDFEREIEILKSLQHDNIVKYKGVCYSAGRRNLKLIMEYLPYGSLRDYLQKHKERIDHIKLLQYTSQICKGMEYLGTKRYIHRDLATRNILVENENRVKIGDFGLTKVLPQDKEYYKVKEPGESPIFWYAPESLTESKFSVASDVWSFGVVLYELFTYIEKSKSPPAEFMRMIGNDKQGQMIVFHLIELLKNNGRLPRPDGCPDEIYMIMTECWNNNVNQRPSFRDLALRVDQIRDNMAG
T1 sequence (P29597 whole entry): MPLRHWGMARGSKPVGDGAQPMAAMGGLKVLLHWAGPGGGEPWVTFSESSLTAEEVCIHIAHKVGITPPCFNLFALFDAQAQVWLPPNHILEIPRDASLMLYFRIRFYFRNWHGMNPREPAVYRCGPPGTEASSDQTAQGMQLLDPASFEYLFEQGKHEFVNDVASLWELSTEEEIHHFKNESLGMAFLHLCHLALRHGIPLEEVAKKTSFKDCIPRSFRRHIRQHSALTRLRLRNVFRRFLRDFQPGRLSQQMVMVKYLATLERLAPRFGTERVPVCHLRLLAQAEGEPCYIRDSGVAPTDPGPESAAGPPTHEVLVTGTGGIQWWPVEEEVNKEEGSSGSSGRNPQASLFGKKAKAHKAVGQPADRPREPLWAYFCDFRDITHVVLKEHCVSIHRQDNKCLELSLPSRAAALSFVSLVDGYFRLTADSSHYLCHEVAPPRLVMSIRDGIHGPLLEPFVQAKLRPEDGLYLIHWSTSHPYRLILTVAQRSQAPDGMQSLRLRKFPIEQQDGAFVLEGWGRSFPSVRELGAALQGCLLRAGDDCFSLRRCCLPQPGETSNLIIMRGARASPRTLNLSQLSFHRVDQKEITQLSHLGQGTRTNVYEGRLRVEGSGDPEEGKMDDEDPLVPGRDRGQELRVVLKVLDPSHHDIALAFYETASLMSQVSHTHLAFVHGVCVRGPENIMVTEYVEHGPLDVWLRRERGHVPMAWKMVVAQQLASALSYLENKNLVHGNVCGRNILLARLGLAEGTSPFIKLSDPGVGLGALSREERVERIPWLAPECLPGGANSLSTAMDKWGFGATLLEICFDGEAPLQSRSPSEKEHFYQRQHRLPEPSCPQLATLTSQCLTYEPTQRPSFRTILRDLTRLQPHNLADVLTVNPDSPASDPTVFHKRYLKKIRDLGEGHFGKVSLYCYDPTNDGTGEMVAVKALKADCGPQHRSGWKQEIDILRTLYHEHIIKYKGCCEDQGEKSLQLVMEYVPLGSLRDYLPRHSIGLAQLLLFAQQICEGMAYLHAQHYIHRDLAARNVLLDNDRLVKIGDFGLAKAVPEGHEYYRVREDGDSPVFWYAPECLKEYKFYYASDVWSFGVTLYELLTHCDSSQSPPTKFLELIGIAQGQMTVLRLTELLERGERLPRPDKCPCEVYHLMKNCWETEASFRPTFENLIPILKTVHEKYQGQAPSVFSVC
T2 sequence (P23458 whole entry): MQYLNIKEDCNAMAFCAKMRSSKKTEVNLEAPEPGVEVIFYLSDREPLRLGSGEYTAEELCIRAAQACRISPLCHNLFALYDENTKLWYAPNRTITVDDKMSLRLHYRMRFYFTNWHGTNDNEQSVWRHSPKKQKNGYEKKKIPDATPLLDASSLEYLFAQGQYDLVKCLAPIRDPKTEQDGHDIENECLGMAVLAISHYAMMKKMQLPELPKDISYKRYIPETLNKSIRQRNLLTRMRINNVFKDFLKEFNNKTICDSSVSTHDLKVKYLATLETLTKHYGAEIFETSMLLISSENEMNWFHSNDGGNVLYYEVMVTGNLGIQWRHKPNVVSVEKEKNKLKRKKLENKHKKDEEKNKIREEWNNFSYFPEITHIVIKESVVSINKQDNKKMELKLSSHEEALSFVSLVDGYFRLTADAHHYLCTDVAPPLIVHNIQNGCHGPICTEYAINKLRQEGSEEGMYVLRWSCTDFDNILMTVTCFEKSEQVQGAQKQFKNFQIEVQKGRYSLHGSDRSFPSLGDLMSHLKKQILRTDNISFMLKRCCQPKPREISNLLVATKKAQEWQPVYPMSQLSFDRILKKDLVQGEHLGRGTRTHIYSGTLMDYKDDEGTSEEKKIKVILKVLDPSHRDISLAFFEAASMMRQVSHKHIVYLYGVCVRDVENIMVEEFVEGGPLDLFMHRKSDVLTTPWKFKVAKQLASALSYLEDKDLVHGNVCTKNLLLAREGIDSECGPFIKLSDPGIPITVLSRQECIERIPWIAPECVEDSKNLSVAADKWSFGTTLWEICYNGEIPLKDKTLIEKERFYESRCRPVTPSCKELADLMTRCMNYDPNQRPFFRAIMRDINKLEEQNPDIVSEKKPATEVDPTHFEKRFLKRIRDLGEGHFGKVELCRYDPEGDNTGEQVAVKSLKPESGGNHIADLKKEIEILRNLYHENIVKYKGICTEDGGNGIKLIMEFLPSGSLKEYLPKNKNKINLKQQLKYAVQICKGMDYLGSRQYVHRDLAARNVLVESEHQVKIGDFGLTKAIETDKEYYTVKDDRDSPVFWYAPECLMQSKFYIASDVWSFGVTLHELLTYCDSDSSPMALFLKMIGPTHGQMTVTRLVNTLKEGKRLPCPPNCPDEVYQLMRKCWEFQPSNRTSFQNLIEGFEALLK

## CCN1CCC([C@](O)(c2ccc(-n3cc(-c4ccnc5[nH]cnc45)cn3)nc2)C(F)(F)F)C1 (stereo partly drawn) [Example 1233, (S)-1-(6-(4-(3H-imidazo[4,5-b]pyridin-7-yl)-1H-pyrazol-1-yl)pyridin-3-yl)-1-(1-ethylpyrrolidin-3-yl)-2,2,2-trifluoroethanol]
[1]
  IC50: > 0.5 µM
Recombinant TYK2
  IC50: < 0.5 µM
Recombinant JAK1
  IC50: < 0.1 µM
Recombinant JAK3
  IC50: < 0.1 µM
[2]
  IC50: 0.21 µM
Recombinant JAK2
  IC50: < 0.1 µM
[3]
  IC50: > 3 µM
[4]
  IC50: > 1 µM

## COC(c1ccc(-n2cc(-c3ccnc4[nH]cnc34)cn2)nc1)C(F)(F)F (centres unmarked) [Example 1119, 7-(1-(5-(2,2,2-trifluoro-1-methoxyethyl)pyridin-2-yl)-1H-pyrazol-4-yl)-3H-imidazo[4,5-b]pyridine]
[1]
  IC50: > 1 µM
Recombinant TYK2
  IC50: > 1 µM
Recombinant JAK1
  IC50: 0.03 µM
Recombinant JAK3
  IC50: 0.07 µM
[2]
  IC50: 1.3 µM
Recombinant JAK2
  IC50: 0.2 µM
[3]
  IC50: 10 µM
[4]
  IC50: > 10 µM

## CC(O)(c1ccc(-n2cc(-c3ccnc4[nH]cnc34)cn2)nc1)C(F)(F)F (centres unmarked) [Example 1125, 2-(6-(4-(3H-imidazo[4,5-b]pyridin-7-yl)-1H-pyrazol-1-yl)pyridin-3-yl)-1,1,1-trifluoropropan-2-ol]
[1]
  IC50: 0.26 µM
Recombinant TYK2
  IC50: 0.15 µM
Recombinant JAK1
  IC50: 0.004 µM
Recombinant JAK3
  IC50: 0.009 µM
[2]
  IC50: 0.27 µM
Recombinant JAK2
  IC50: 0.023 µM
[3]
  IC50: > 10 µM
[4]
  IC50: > 10 µM

## CN1CCC([C@](O)(c2ccc(-n3cc(-c4ccnc5[nH]cnc45)cn3)nc2)C(F)(F)F)C1 (stereo partly drawn) [Example 1234, (S)-1-(6-(4-(3H-imidazo[4,5-b]pyridin-7-yl)-1H-pyrazol-1-yl)pyridin-3-yl)-2,2,2-trifluoro-1-(1-methylpyrrolidin-3-yl)ethanol]
[1]
  IC50: 0.47 µM
Recombinant TYK2
  IC50: 0.67 µM
Recombinant JAK1
  IC50: 0.006 µM
[2]
  IC50: 0.14 µM
[3]
  IC50: > 1 µM
[4]
  IC50: > 1 µM

## CCN1CCC([C@@](O)(c2ccc(-n3cc(-c4ccnc5[nH]cnc45)cn3)nc2)C(F)(F)F)C1 (stereo partly drawn) [Example 1232, (R)-1-(6-(4-(3H-imidazo[4,5-b]pyridin-7-yl)-1H-pyrazol-1-yl)pyridin-3-yl)-1-(1-ethylpyrrolidin-3-yl)-2,2,2-trifluoroethanol]
[1]
  IC50: 0.34 µM
Recombinant TYK2
  IC50: 0.2 µM
Recombinant JAK1
  IC50: 0.003 µM
Recombinant JAK3
  IC50: 0.015 µM
[2]
  IC50: 0.09 µM
Recombinant JAK2
  IC50: 0.023 µM
[3]
  IC50: > 3 µM
[4]
  IC50: > 1 µM

## CS(=O)(=O)CC[C@H](c1ccc(-n2cc(-c3ccnc4[nH]cnc34)cn2)nc1)C(F)(F)F [Example 1182, 7-(1-(5-((R)-1,1,1-trifluoro-4-(methylsulfonyl)butan-2-yl)pyridin-2-yl)-1H-pyrazol-4-yl)-3H-imidazo[4,5-b]pyridine]
[1]
  IC50: 0.9 µM
Recombinant TYK2
  IC50: > 1 µM
Recombinant JAK1
  IC50: 0.015 µM
Recombinant JAK3
  IC50: 0.041 µM
[2]
  IC50: 0.35 µM
[3]
  IC50: > 3 µM
[4]
  IC50: > 1 µM

## CC(C)N1CCC([C@@](O)(c2ccc(-n3cc(-c4ccnc5[nH]cnc45)cn3)nc2)C(F)(F)F)C1 (stereo partly drawn) [Example 1225, (R)-1-(6-(4-(3H-imidazo[4,5-b]pyridin-7-yl)-1H-pyrazol-1-yl)pyridin-3-yl)-2,2,2-trifluoro-1-(1-isopropylpyrrolidin-3-yl)ethanol]
[1]
  IC50: 0.47 µM
Recombinant TYK2
  IC50: > 1 µM
Recombinant JAK1
  IC50: 0.0025 µM
Recombinant JAK3
  IC50: 0.018 µM
[2]
  IC50: 0.16 µM
Recombinant JAK2
  IC50: 0.064 µM
[3]
  IC50: > 3 µM
[4]
  IC50: > 1 µM

## CC(C)N1CC(C(O)(c2ccc(-n3cc(-c4ccnc5[nH]cnc45)cn3)nc2)C(F)(F)F)C1 (centres unmarked) [Example 1237, 1-(6-(4-(3H-imidazo[4,5-b]pyridin-7-yl)-1H-pyrazol-1-yl)pyridin-3-yl)-2,2,2-trifluoro-1-(1-isopropylazetidin-3-yl)ethanol]
[1]
  IC50: > 0.5 µM
Recombinant JAK3
  IC50: 0.005 µM
[2]
  IC50: 0.19 µM
Recombinant JAK2
  IC50: 0.01 µM
[3]
  IC50: > 3 µM
[4]
  IC50: > 1 µM

## CN1CC(C(O)(c2ccc(-n3cc(-c4ccnc5[nH]cnc45)cn3)nc2)C(F)(F)F)C1 (centres unmarked) [Example 1231, 1-(6-(4-(3H-imidazo[4,5-b]pyridin-7-yl)-1H-pyrazol-1-yl)pyridin-3-yl)-2,2,2-trifluoro-1-(1-methylazetidin-3-yl)ethanol]
[1]
  IC50: 0.15 µM
Recombinant JAK1
  IC50: 0.0003 µM
[2]
  IC50: 0.05 µM
Recombinant JAK2
  IC50: 0.005 µM
[3]
  IC50: > 3 µM
[4]
  IC50: 1.5 µM

## CN1CCC([C@@](O)(c2ccc(-n3cc(-c4ccnc5[nH]cnc45)cn3)nc2)C(F)(F)F)C1 (stereo partly drawn) [Example 1235, (R)-1-(6-(4-(3H-imidazo[4,5-b]pyridin-7-yl)-1H-pyrazol-1-yl)pyridin-3-yl)-2,2,2-trifluoro-1-(1-methylpyrrolidin-3-yl)ethanol]
[1]
  IC50: 0.55 µM
Recombinant TYK2
  IC50: > 1 µM
[2]
  IC50: 0.36 µM
Recombinant JAK2
  IC50: > 0.03 µM
[3]
  IC50: > 1 µM
[4]
  IC50: > 1 µM

## N#CCc1ccc(-n2cc(-c3ccnc4[nH]cnc34)cn2)nc1 [Example 1078, 2-(6-(4-(3H-imidazo[4,5-b]pyridin-7-yl)-1H-pyrazol-1-yl)pyridin-3-yl)acetonitrile]
[1]
  IC50: > 1 µM
Recombinant TYK2
  IC50: > 1 µM
Recombinant JAK1
  IC50: 0.025 µM
Recombinant JAK3
  IC50: 0.07 µM
[2]
  IC50: 1.05 µM
Recombinant JAK2
  IC50: 0.108 µM
[3]
  IC50: > 10 µM
[4]
  IC50: > 10 µM

## CC(=O)N1CCC(C(O)(c2ccc(-n3cc(-c4ccnc5[nH]cnc45)cn3)nc2)C(F)(F)F)CC1 (centres unmarked) [Example 1131, 1-(4-(1-(6-(4-(3H-imidazo[4,5-b]pyridin-7-yl)-1H-pyrazol-1-yl)pyridin-3-yl)-2,2,2-trifluoro-1-hydroxyethyl)piperidin-1-yl)ethanone]
[1]
  IC50: > 1 µM
Recombinant TYK2
  IC50: > 1 µM
Recombinant JAK1
  IC50: 0.053 µM
Recombinant JAK3
  IC50: 0.11 µM
[2]
  IC50: > 0.5 µM
Recombinant JAK2
  IC50: 0.38 µM
[4]
  IC50: > 10 µM

## OC(c1ccc(-n2cc(-c3ccnc4[nH]cnc34)cn2)nc1)C(F)(F)F (centres unmarked) [Example 1169, 1-(6-(4-(3H-imidazo[4,5-b]pyridin-7-yl)-1H-pyrazol-1-yl)pyridin-3-yl)-2,2,2-trifluoroethanol]
[1]
  IC50: < 1 µM
Recombinant TYK2
  IC50: > 1 µM
Recombinant JAK1
  IC50: 0.013 µM
Recombinant JAK3
  IC50: 0.014 µM
[2]
  IC50: 0.45 µM
Recombinant JAK2
  IC50: 0.073 µM
[3]
  IC50: > 10 µM
[4]
  IC50: > 10 µM

## CC(C)N1CCC([C@](O)(c2ccc(-n3cc(-c4ccnc5[nH]cnc45)cn3)nc2)C(F)(F)F)C1 (stereo partly drawn) [Example 1226, (S)-1-(6-(4-(3H-imidazo[4,5-b]pyridin-7-yl)-1H-pyrazol-1-yl)pyridin-3-yl)-2,2,2-trifluoro-1-(1-isopropylpyrrolidin-3-yl)ethanol]
[1]
  IC50: > 0.75 µM
Recombinant TYK2
  IC50: > 1 µM
Recombinant JAK1
  IC50: < 0.01 µM
Recombinant JAK3
  IC50: > 0.03 µM
[2]
  IC50: > 0.5 µM
Recombinant JAK2
  IC50: > 0.03 µM
[4]
  IC50: > 1 µM
